Measured values taken from US7034036B2, “Inhibitors of ABC drug transporters at the blood-brain barrier” (Pain Therapeutics, Inc., priority 2000, dated 2006).

Tested on: mice
Assay: Tail flick anti-nociception, naltrexone given with morphine from day 1 (Groups C, D, combined analysis)
Format: in vivo
Design: Enhancement of Latency (tail flick) / Enhancement of Latency by Naltrexone (tail flick): unit not given here
Procedure: In a third series of experiments, 40 male mice were randomized into 5 groups of eight. All mice were administered single 3 mg/kg morphine daily (b.i.d.), beginning on Day 1.
In a final series of experiments, 40 female mice were randomized into 5 groups of eight. All mice were administered single 3 mg/kg morphine daily (b.i.d.), beginning on Day 1.

Question: With `O=C1CC[C@@]2(O)[C@H]3Cc4ccc(O)c5c4[C@@]2(CCN3CC2CC2)[C@H]1O5` [Naltrexone, naltrexone] as the compound, how does the “Enhancement of Latency by Naltrexone (tail flick)” value (“Enhancement … (tail flick)” below) (female mice, Group 4: morphine 3 mg/kg + naltrexone 300 ng/kg b.i.d. from day 1, Day 3) read?
Answer: Its value is 10.3.

Question: And the “Enhancement … (tail flick)” value (female mice, Group 4: morphine 3 mg/kg + naltrexone 300 ng/kg b.i.d. from day 1, Day 5)?
Answer: Its value is 1.9.

Question: What about the “Enhancement … (tail flick)” value (female mice, Group 4: morphine 3 mg/kg + naltrexone 300 ng/kg b.i.d. from day 1, Day 7) of the same compound?
Answer: Its value is 0.2.

Question: What about the “Enhancement … (tail flick)” value (female mice, Group 4: morphine 3 mg/kg + naltrexone 300 ng/kg b.i.d. from day 1, Day 10) of the same compound?
Answer: The value was 5.9.

Question: What about the “Enhancement … (tail flick)” value (female mice, Group 4: morphine 3 mg/kg + naltrexone 300 ng/kg b.i.d. from day 1, Day 11, single bolus 10 μg/kg naltrexone in addition) of the same compound?
Answer: The value was 0.8.

Question: What about the “Enhancement … (tail flick)” value (female mice, Group 5: morphine 3 mg/kg + naltrexone 3000 ng/kg b.i.d. from day 1, Day 1) of the same compound?
Answer: The value was 12.3.

Question: And the “Enhancement … (tail flick)” value (female mice, Group 5: morphine 3 mg/kg + naltrexone 3000 ng/kg b.i.d. from day 1, Day 3)?
Answer: Its value is 9.6.

Question: What about the “Enhancement … (tail flick)” value (female mice, Group 5: morphine 3 mg/kg + naltrexone 3000 ng/kg b.i.d. from day 1, Day 5) of the same compound?
Answer: The value was 3.4.

Question: And the “Enhancement … (tail flick)” value (female mice, Group 5: morphine 3 mg/kg + naltrexone 3000 ng/kg b.i.d. from day 1, Day 7)?
Answer: The value was 1.9.

Question: And the “Enhancement … (tail flick)” value (female mice, Group 5: morphine 3 mg/kg + naltrexone 3000 ng/kg b.i.d. from day 1, Day 10)?
Answer: Its value is 6.7.

Question: And the “Enhancement … (tail flick)” value (female mice, Group 5: morphine 3 mg/kg + naltrexone 3000 ng/kg b.i.d. from day 1, Day 11, single bolus 10 μg/kg naltrexone in addition)?
Answer: Its value is −0.7.

Question: And the “Latency versus other doses” value (female mice, dose 0.3 ng/kg as printed, not significantly different from 0.03 or 3 ng/kg)?
Answer: The value was “gave the longest latency”.

Question: What about the “Latency versus other concentrations” value (male mice, Groups A and C combined, days 8 and 10, naltrexone at 300 ng) of the same compound?
Answer: The value was “gave the greatest latency”.

Question: What about the “Enhancement … (tail flick)” value (male mice, Group 2: morphine 3 mg/kg + naltrexone 3 ng/kg b.i.d. from day 1, Day 1) of the same compound?
Answer: The value was 13.3.

Question: What about the “Enhancement … (tail flick)” value (male mice, Group 2: morphine 3 mg/kg + naltrexone 3 ng/kg b.i.d. from day 1, Day 3) of the same compound?
Answer: The value was 7.5.

Question: And the “Enhancement … (tail flick)” value (male mice, Group 2: morphine 3 mg/kg + naltrexone 3 ng/kg b.i.d. from day 1, Day 5)?
Answer: Its value is 4.5.

Question: And the “Enhancement … (tail flick)” value (male mice, Group 2: morphine 3 mg/kg + naltrexone 3 ng/kg b.i.d. from day 1, Day 8)?
Answer: Its value is 5.5.

Question: What about the “Enhancement … (tail flick)” value (male mice, Group 2: morphine 3 mg/kg + naltrexone 3 ng/kg b.i.d. from day 1, Day 10) of the same compound?
Answer: The value was 2.7.

Question: What about the “Enhancement … (tail flick)” value (male mice, Group 2: morphine 3 mg/kg + naltrexone 3 ng/kg b.i.d. from day 1, Day 12, single bolus 10 μg/kg naltrexone to every mouse) of the same compound?
Answer: Its value is 1.1.

Question: What about the “Enhancement … (tail flick)” value (male mice, Group 3: morphine 3 mg/kg + naltrexone 30 ng/kg b.i.d. from day 1, Day 1) of the same compound?
Answer: The value was 12.4.

Question: And the “Enhancement … (tail flick)” value (male mice, Group 3: morphine 3 mg/kg + naltrexone 30 ng/kg b.i.d. from day 1, Day 3)?
Answer: Its value is 9.3.

Question: And the “Enhancement … (tail flick)” value (male mice, Group 3: morphine 3 mg/kg + naltrexone 30 ng/kg b.i.d. from day 1, Day 5)?
Answer: The value was 7.5.

Question: What about the “Enhancement … (tail flick)” value (male mice, Group 3: morphine 3 mg/kg + naltrexone 30 ng/kg b.i.d. from day 1, Day 8) of the same compound?
Answer: Its value is 7.1.

Question: And the “Enhancement … (tail flick)” value (male mice, Group 3: morphine 3 mg/kg + naltrexone 30 ng/kg b.i.d. from day 1, Day 10)?
Answer: The value was 3.2.

Question: What about the “Enhancement … (tail flick)” value (male mice, Group 3: morphine 3 mg/kg + naltrexone 30 ng/kg b.i.d. from day 1, Day 12, single bolus 10 μg/kg naltrexone to every mouse) of the same compound?
Answer: The value was −0.8.

Question: And the “Enhancement … (tail flick)” value (male mice, Group 4: morphine 3 mg/kg + naltrexone 300 ng/kg b.i.d. from day 1, Day 1)?
Answer: Its value is 16.3.

Question: And the “Enhancement … (tail flick)” value (male mice, Group 4: morphine 3 mg/kg + naltrexone 300 ng/kg b.i.d. from day 1, Day 3)?
Answer: Its value is 17.1.

Question: And the “Enhancement … (tail flick)” value (male mice, Group 4: morphine 3 mg/kg + naltrexone 300 ng/kg b.i.d. from day 1, Day 5)?
Answer: The value was 11.8.

Question: And the “Enhancement … (tail flick)” value (male mice, Group 4: morphine 3 mg/kg + naltrexone 300 ng/kg b.i.d. from day 1, Day 8)?
Answer: Its value is 9.4.

Question: What about the “Enhancement … (tail flick)” value (male mice, Group 4: morphine 3 mg/kg + naltrexone 300 ng/kg b.i.d. from day 1, Day 10) of the same compound?
Answer: The value was 6.1.

Question: What about the “Enhancement … (tail flick)” value (male mice, Group 4: morphine 3 mg/kg + naltrexone 300 ng/kg b.i.d. from day 1, Day 12, single bolus 10 μg/kg naltrexone to every mouse) of the same compound?
Answer: The value was −0.2.

Question: And the “Enhancement … (tail flick)” value (male mice, Group 5: morphine 3 mg/kg + naltrexone 3000 ng/kg b.i.d. from day 1, Day 1)?
Answer: Its value is 13.5.

Question: What about the “Enhancement … (tail flick)” value (male mice, Group 5: morphine 3 mg/kg + naltrexone 3000 ng/kg b.i.d. from day 1, Day 3) of the same compound?
Answer: The value was 13.0.

Question: What about the “Enhancement … (tail flick)” value (male mice, Group 5: morphine 3 mg/kg + naltrexone 3000 ng/kg b.i.d. from day 1, Day 5) of the same compound?
Answer: The value was 12.0.

Question: And the “Enhancement … (tail flick)” value (male mice, Group 5: morphine 3 mg/kg + naltrexone 3000 ng/kg b.i.d. from day 1, Day 8)?
Answer: Its value is 10.4.

Question: And the “Enhancement … (tail flick)” value (male mice, Group 5: morphine 3 mg/kg + naltrexone 3000 ng/kg b.i.d. from day 1, Day 10)?
Answer: The value was 7.4.

Question: And the “Enhancement … (tail flick)” value (male mice, Group 5: morphine 3 mg/kg + naltrexone 3000 ng/kg b.i.d. from day 1, Day 12, single bolus 10 μg/kg naltrexone to every mouse)?
Answer: The value was −0.7.

Question: What about the “Enhancement of latency versus other concentrations” value (male mice, naltrexone at 300 ng with morphine 3 mg/kg from day 1, Days 1, 3, 5, 8, 10) of the same compound?
Answer: The value was “significantly greater”.

Question: And the “Latency versus other concentrations” value (males and females combined, naltrexone 30 ng/kg and 300 ng/kg, days 1, 3, 5, 6, 8, 10)?
Answer: Its value is “significantly longer latency”.

Question: And the “Development of tolerance to morphine” value (naltrexone in combination with morphine)?
Answer: The value was “prevents the mice from developing a tolerance to morphine”.
